The results in this text go back to patent US20160108049A1 (TAKEDA Gmbh, priority 2011, published 2016).

One assay concerns the target T1, human PDE5 (Homo sapiens, UniProt O76074).
T1 construct: from tissue; host or cells: human platelets from fresh donor blood (platelet lysate)
The assay can be described thus: Inhibition of PDE5 activity (platelet lysate, SPA assay). Type of assay: biochemical. The settings on record: 0.5 μM cGMP, read-out: PDE5 Inhibitory values measured as -logIC50 (converted). Summed up: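 Human platelet lysate (10,000 g supernatant) served as PDE5 source, with 1 μM motapizone and 10 nM PDE2 inhibitor added, in Tris pH 7.4, 5 mM Mg2+, BSA. Substrate 0.5 μM [3H]cGMP, 10–20% conversion; 5 min preincubation then 15 min at 37 °C, stopped by SPA beads with IBMX. IC50 by non-linear regression.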

The next assay addresses T2, PDE4B1 (Homo sapiens, UniProt Q07343).
T2 construct: made in house; host or cells: SF21 insect cells (baculovirus; virus made in SF9 cells, pCR-Bac vector)
In words: Inhibition of PDE4 activity (PDE4B1, SPA assay). Conditions: recombinant PDE4B1, 0.5 μM cAMP; read-out: PDE4B1 Inhibitory values measured as -logIC50 (converted). The format is biochemical. Summed up:
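Baculovirus-expressed enzyme from SF21 cell 1000×g supernatant; substrate 0.5 μM [3H]cAMP in 20 mM Tris pH 7.4, 5 mM Mg2+, 0.1 mg/ml BSA, 10-20% conversion. 5 min preincubation at 37 °C, 15 min reaction, stopped by SPA beads with IBMX; IC50 by non-linear regression.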

Bounds are passed on as bounds.

T2 sequence (Q07343 whole entry): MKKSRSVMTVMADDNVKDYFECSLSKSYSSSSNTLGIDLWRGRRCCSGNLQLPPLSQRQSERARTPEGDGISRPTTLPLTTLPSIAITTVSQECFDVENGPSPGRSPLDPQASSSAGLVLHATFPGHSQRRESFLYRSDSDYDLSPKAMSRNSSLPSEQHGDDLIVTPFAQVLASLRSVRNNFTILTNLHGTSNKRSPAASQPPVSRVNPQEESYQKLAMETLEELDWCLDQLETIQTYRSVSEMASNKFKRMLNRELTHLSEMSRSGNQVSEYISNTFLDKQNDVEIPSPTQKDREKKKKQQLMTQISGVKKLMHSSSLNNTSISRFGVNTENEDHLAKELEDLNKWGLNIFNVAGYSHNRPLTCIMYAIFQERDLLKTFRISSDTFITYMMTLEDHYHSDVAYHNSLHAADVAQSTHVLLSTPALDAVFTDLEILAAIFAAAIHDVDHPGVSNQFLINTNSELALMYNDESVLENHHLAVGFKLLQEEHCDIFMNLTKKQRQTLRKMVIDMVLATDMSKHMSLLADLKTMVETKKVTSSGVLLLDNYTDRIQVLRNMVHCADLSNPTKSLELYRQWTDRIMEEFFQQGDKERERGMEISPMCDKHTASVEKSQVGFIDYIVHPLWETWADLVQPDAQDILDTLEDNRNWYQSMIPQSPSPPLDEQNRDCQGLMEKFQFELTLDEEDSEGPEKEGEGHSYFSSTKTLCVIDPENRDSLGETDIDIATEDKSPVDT

`COc1ccc(C2=NN(C3CCN(C(=O)[C@@H](Cc4ccc(F)cc4)NC(=O)c4c[nH]c5c(-c6c(OCC7CC7)ccc7c6OCO7)ncnc45)CC3)C(=O)C(C)(C)C2)cc1OC` [Example 108, 4-[5-(cyclopropylmethoxy)-1,3-benzodioxol-4-yl]-N-[(2R)-1-{4-[3-(3,4-dimethoxyphenyl)-5,5-dimethyl-6-oxo-5,6-dihydropyridazin-1(4H)-yl]piperidin-1-yl}-3-(4-fluorophenyl)-1-oxopropan-2-yl]-5H-pyrrolo[3,2-d]pyrimidine-7-carboxamide]: the IC50 on human PDE5 and at PDE4B1 was < 1 nM in each case.
For the compound `COc1ccc(C2=NN(C3CCN(C(=O)[C@@H](Cc4ccc(-c5ccccc5)cc4)NC(=O)c4c(C)[nH]c5c(-c6c(OCC7CC7)ccc7c6OCO7)ncnc45)CC3)C(=O)[C@@H]3CCCC[C@H]23)cc1OC` [Example 12, N-[(2R)-3-(biphenyl-4-yl)-1-{4-[(4aS,8aR)-4-(3,4-dimethoxyphenyl)-1-oxo-4a,5,6,7,8,8a-hexahydrophthalazin-2(1H)-yl]piperidin-1-yl}-1-oxopropan-2-yl]-4-[5-(cyclopropylmethoxy)-1,3-benzodioxol-4-yl]-6-methyl-5H-pyrrolo[3,2-d]pyrimidine-7-carboxamide], the IC50 on human PDE5 and at PDE4B1 was 1 to 10 nM in each case.
Take `COc1ccc(C2=NN(C3CCN(C(=O)[C@@H](Cc4ccc(C(F)(F)F)cc4)NC(=O)c4c[nH]c5c(-c6c(OCC7CC7)ccc7c6OCO7)ncnc45)CC3)C(=O)[C@@H]3CCCC[C@H]23)cc1OC` [Example 49, 4-[5-(cyclopropylmethoxy)-1,3-benzodioxol-4-yl]-N-{(2R)-1-{4-[(4aS,8aR)-4-(3,4-dimethoxyphenyl)-1-oxo-4a,5,6,7,8,8a-hexahydrophthalazin-2(1H)-yl]piperidin-1-yl}-1-oxo-3-[4-(trifluoromethyl)phenyl]propan-2-yl}-5H-pyrrolo[3,2-d]pyrimidine-7-carboxamide]: the IC50 at human PDE5 and on PDE4B1 was 1 to 10 nM in each case.
With `COc1ccc(C2=NN(C3CCN(C(=O)[C@H](Cc4ccccc4)NC(=O)c4c[nH]c5c(-c6c(OCC7CC7)ccc7c6OCO7)ncnc45)CC3)C(=O)C(C)(C)C2)cc1OC` [Example 110, 4-[5-(cyclopropylmethoxy)-1,3-benzodioxol-4-yl]-N-[(2S)-1-{4-[3-(3,4-dimethoxyphenyl)-5,5-dimethyl-6-oxo-5,6-dihydropyridazin-1(4H)-yl]piperidin-1-yl}-1-oxo-3-phenylpropan-2-yl]-5H-pyrrolo[3,2-d]pyrimidine-7-carboxamide], the IC50 on human PDE5 and at PDE4B1 was 1 to 10 nM throughout.
Take `COc1ccc(C2=NN(C3CCN(C(=O)[C@H](C)NC(=O)c4c[nH]c5c(-c6c(OCC7CC7)ccc7c6OCO7)ncnc45)CC3)C(=O)[C@@H]3CCCC[C@H]23)cc1OC` [Example 61, 4-[5-(cyclopropylmethoxy)-1,3-benzodioxol-4-yl]-N-[(2S)-1-{4-[(4aS,8aR)-4-(3,4-dimethoxyphenyl)-1-oxo-4a,5,6,7,8,8a-hexahydrophthalazin-2(1H)-yl]piperidin-1-yl}-1-oxopropan-2-yl]-5H-pyrrolo[3,2-d]pyrimidine-7-carboxamide]: the results for the IC50 on human PDE5 and on PDE4B1 were 1 to 10 nM and < 1 nM, respectively.
The like results for `COc1ccc(C2=NN(C3CCN(C(=O)[C@@H](Cc4c[nH]cn4)NC(=O)c4c[nH]c5c(-c6c(OCC7CC7)ccc7c6OCO7)ncnc45)CC3)C(=O)[C@@H]3CCCC[C@H]23)cc1OC` [Example 89, 4-[5-(cyclopropylmethoxy)-1,3-benzodioxol-4-yl]-N-[(2R)-1-{4-[(4aS,8aR)-4-(3,4-dimethoxyphenyl)-1-oxo-4a,5,6,7,8,8a-hexahydrophthalazin-2(1H)-yl]piperidin-1-yl}-3-(1H-imidazol-4-yl)-1-oxopropan-2-yl]-5H-pyrrolo[3,2-d]pyrimidine-7-carboxamide] were, in that order, < 1 nM and < 1 nM.
On the same counts, the results for `COc1ccc(C2=NN(C3CCN(C(=O)[C@H](Cc4ccccc4)NC(=O)c4c[nH]c5c(-c6c(OCC7CC7)ccc7c6OCO7)ncnc45)CC3)C(=O)[C@H]3CCCC[C@@H]23)cc1OC` [Example 44, 4-[5-(cyclopropylmethoxy)-1,3-benzodioxol-4-yl]-N-[(2S)-1-{4-[(4aR,8aS)-4-(3,4-dimethoxyphenyl)-1-oxo-4a,5,6,7,8,8a-hexahydrophthalazin-2(1H)-yl]piperidin-1-yl}-1-oxo-3-phenylpropan-2-yl]-5H-pyrrolo[3,2-d]pyrimidine-7-carboxamide] are 1 to 10 nM and > 10 nM.
The like results for `COc1ccc(C2=NN(C3CCN(C(=O)[C@H](NC(=O)c4c[nH]c5c(-c6c(OCC7CC7)ccc7c6OCO7)ncnc45)[C@H](C)c4ccccc4)CC3)C(=O)[C@@H]3CCCC[C@H]23)cc1OC` [Example 50, 4-[5-(cyclopropylmethoxy)-1,3-benzodioxol-4-yl]-N-[(2R,3R)-1-{4-[(4aS,8aR)-4-(3,4-dimethoxyphenyl)-1-oxo-4a,5,6,7,8,8a-hexahydrophthalazin-2(1H)-yl]piperidin-1-yl}-1-oxo-3-phenylbutan-2-yl]-5H-pyrrolo[3,2-d]pyrimidine-7-carboxamide] were, in that order, 1 to 10 nM and < 1 nM.
In the case of `COc1ccc(C2=NN(C3CCN(C(=O)[C@H](Cc4cccnc4)NC(=O)c4c[nH]c5c(-c6c(OCC7CC7)ccc7c6OCO7)ncnc45)CC3)C(=O)[C@@H]3CCCC[C@H]23)cc1OC` [Example 43, 4-[5-(cyclopropylmethoxy)-1,3-benzodioxol-4-yl]-N-[(2S)-1-{4-[(4aS,8aR)-4-(3,4-dimethoxyphenyl)-1-oxo-4a,5,6,7,8,8a-hexahydrophthalazin-2(1H)-yl]piperidin-1-yl}-1-oxo-3-(pyridin-3-yl)propan-2-yl]-5H-pyrrolo[3,2-d]pyrimidine-7-carboxamide], the IC50 at human PDE5 and at PDE4B1 was < 1 nM each time.
Turning to `COc1ccc(C2=NN(C3CCN(C(=O)[C@@H](Cc4ccc(N5CCC5=O)cc4)NC(=O)c4c[nH]c5c(-c6c(OCC7CC7)ccc7c6OCO7)ncnc45)CC3)C(=O)[C@@H]3CCCC[C@H]23)cc1OC` [Example 112, 4-[5-(cyclopropylmethoxy)-1,3-benzodioxol-4-yl]-N-{(2R)-1-{4-[(4aS,8aR)-4-(3,4-dimethoxyphenyl)-1-oxo-4a,5,6,7,8,8a-hexahydrophthalazin-2(1H)-yl]piperidin-1-yl}-1-oxo-3-[4-(2-oxoazetidin-1-yl)phenyl]propan-2-yl}-5H-pyrrolo[3,2-d]pyrimidine-7-carboxamide], the IC50 on human PDE5 and at PDE4B1 was < 1 nM throughout.
As to `COc1cc(OCC2CC2)c(-c2ncnc3c(C(=O)N[C@H](Cc4ccccc4)C(=O)N4CCC(N5N=C(c6ccc(OC)c(OC)c6)CC(C)(C)C5=O)CC4)c[nH]c23)cc1F` [Example 68, 4-[2-(cyclopropylmethoxy)-5-fluoro-4-methoxyphenyl]-N-[(2R)-1-{4-[3-(3,4-dimethoxyphenyl)-5,5-dimethyl-6-oxo-5,6-dihydropyridazin-1(4H)-yl]piperidin-1-yl}-1-oxo-3-phenylpropan-2-yl]-5H-pyrrolo[3,2-d]pyrimidine-7-carboxamide], the IC50 on human PDE5 and on PDE4B1 was 1 to 10 nM each time.
